Assays:
[1] = test system: normal human myofibroblasts; assay: Toxicity for normal human myofibroblasts relative to WS6; format: cell-based
Description: (§1) Cell viability was determined by the Alamar Blue assay (75 mg resazurin, 12.5 mg methylene blue, 164.5 mg potassium hexacyanoferrate (III), 211 mg potassium hexacyanoferrate (II) trihydrate in 500 mL of phosphate buffered saline). After 6 h incubation with Alamar Blue, the change of fluorescence was measured by Victor 3 multilabel Plate Reader (Perkin Elmer Australia, Melburne, Australia) at an excitation wavelength of 560 nm and an emission wavelength of 590 nm.
We have shown that the PA2G4 protein increased the half-life of the oncoprotein MYCN through direct binding, and competitive chemical inhibition of this bond by WS6 reduced tumorigenicity both in vitro and in vivo [11]. […] Here, we explored the structure–activity relationship (SAR) of WS6 analogue compounds with the aim to increase efficacy and reduce toxicity. […] The in vitro cytotoxicity of these 14 compounds were measured by cell viability assays using Alamar Blue in MYCN amplified human neuroblastoma (SK-N-BE(2)-C and Kelly) cell lines compared to non-malignant (WI-38, MRC-5) myofibroblast cell lines (Figure 1B,C and Supplementary Figure S1A).

neuroblastoma cells = assay: Annexin V/7-AAD flow cytometry apoptosis assay; format: cell-based, human; details: 48 h treatment
Description: Neuroblastoma cell lines were seeded 24 h before treating with #5333 or #5338 for 48 h. The apoptotic and necrotic effects of the #5333 and #5338 treatment were determined by staining the cells with Annexin V PE/7-AAD using the Annexin V: PE Apoptosis Detection Kit (BD Biosciences, North Ryde, NSW, Australia), according to the manufacturer’s instruction. Stained cells were measured by flow cytometry using the BD LSRFortessa (BD Biosciences, NSW, Australia) and the data was analysed using the FlowJo software.
To determine if the drug effects led to apoptosis, we stained cells with annexin-V/7-AAD, a marker of early and late apoptotic events (Figure 2D). […] To confirm the apoptotic status of the cells, protein expression of key apoptotic markers PARP/Cleaved PARP, Caspase 3/Cleaved caspase 3, BCL2, and Bax was measured (Figure 2E).

SK-N-BE(2)-C cells = assay: Colony formation assay, SK-N-BE(2)-C; format: cell-based, human; details: increasing concentrations, 2 weeks
Description: A total of 250 SK-N-BE(2)-C and 500 Kelly cells were seeded in 6-well plates and treated with #5333 and #5338 24 h after seeding. Once colonies had formed (14 days for Kelly, 10 days for SK-N-BE(2)-C), cells were fixed and stained with 0.5% crystal violet in 50% methanol and washed twice to remove the unincorporated stain. The photos of colonies were taken by ChemiDoc MP Imaging System (Bio-Rad, South Granville, NSW, Australia). Stained colonies were counted, and colony size was measured using Image J software.
We treated human neuroblastoma tumour cell lines with high MYCN and PA2G4 expression (Kelly and SK-N-BE(2)-C), using increasing concentrations of #5333 or #5338, and measured the ability of cells to proliferate and form colonies in vitro over 2 weeks. […] Next, we evaluated cell replication using the BrdU uptake assay in response to 30 μM drug treatment for 48 h (Figure 2C).

[2] = test system: SK-N-BE(2)-C shMYCN cells; assay: Alamar Blue viability, Dox-inducible SK-N-BE(2)-C shMYCN cells; format: cell-based; details: Homo sapiens, 72 h, 72 h treatment
Excerpt: The MYCN amplified neuroblastoma cell line SK-N-BE(2)-C was kindly provided by Professor June Biedler (Memorial Sloan Kettering Cancer Centre, New York, NY, USA), and Kelly was obtained from European Collection of Cell Cultures. The two normal lung fibroblast cell lines (MRC-5 and WI-38) were purchased from ATCC. SK-N-BE(2)-C shMYCN#2 doxycycline-inducible cell and Kelly shMYCN#2 doxycycline-inducible cell were custom-made by GenScript (Piscataway, NJ, USA). SK-N-BE(2)-C, SK-N-BE(2)-C shMYCN#2, and SHEP MYCN3 doxycycline-inducible cells were maintained in Dulbecco’s modified Eagle’s medium (DMEM) (Invitrogen, Life Technologies, Waltham, MA, USA) with 10% foetal calf serum (FCS). Kelly and Kelly shMYCN#2 doxycycline-inducible cell were cultured in Roswell Park Memorial Institute (RPMI) 1640 (Invitrogen, Life Technologies) with 10% FCS. MRC-5 and WI-38 were cultured in Alpha-MEM media (Invitrogen, Life Technologies) with 10% FCS. All cells were not cultured for more than 2 months. All used cell lines were authenticated by Cell Bank Australia (Westmead, NSW, Australia) as being free from mycoplasma, and cultured at 37 °C and 5% CO2 in a humidifier incubator.
as §1
Next, we examined whether #5333 and #5338 treatment for 48 h affected the levels of WS6 target proteins, PA2G4, and MYCN in neuroblastoma cells. […] To determine the specificity of #5333 and #5338 for MYCN, we used two different doxycycline (Dox)-inducible neuroblastoma cell systems for repression of MYCN expression: shMYCN SK-N-BE(2)-C (MYCN-amplified) and shMYCN Kelly (MYCN-amplified) cell lines. Cell viability was measured following #5333 and #5338 treatments for 48–72 h. […] In addition, the specificity and efficacy of #5333 and #5338 were also tested in MYCN non-amplified SHEP MYCN3 cell lines with Dox-inducible MYCN induction. Cell viability was measured following #5333, #5338, or WS6 treatments for 72 h.
Figure 3 Compounds #5333 and #5338 functionally interact with MYCN and PA2G4 in neuroblastoma cells. (A) Western blot showing a decrease in protein expression due to #5333 or #5338 drug treatment. (B) Alamar Blue assays comparing cell viability of SK-N-BE(2)-C after Doxycycline (Dox)-inducible MYCN knockdown, followed by 72 h treatment with #5333 or #5338. […]

[3] = Dox (2 μg/ml) +, MYCN - (knockdown)

Row | IC50 [2, 3] | IC50 ([2]; Dox (2 μg/ml) -, MYCN +) | Compound | fold lower toxicity for normal human myofibroblasts compared to WS6 [1] | apoptosis (annexin-V/7-AAD) (neuroblastoma cells) | colony number and size, SK-N-BE(2)-C (SK-N-BE(2)-C cells)
1 | 46.6 µM | 25.2 µM | Cc1cccc(Oc2cc(N3CCC(C(=O)NCc4cccc(Br)c4)CC3)ncn2)c1C [#5333] | 70 fold | caused similar levels of apoptosis | decreased both the number and size of the colonies
2 | 32.3 µM | 24.1 µM | Cc1cccc(Oc2cc(N3CCC(C(=O)N[C@@H](C)CCc4ccccc4)CC3)ncn2)c1C [#5338] | 70 fold | caused similar levels of apoptosis | decreased both the number and size of the colonies

From publication PMC10046377, “Inhibitors of the Oncogenic PA2G4-MYCN Protein-Protein Interface” (Cancers, 2023)
